Assay results from ChEMBL document CHEMBL1201862, “PubChem BioAssay data set” (2004).
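Growth conditions: 96-well plates. Treatment: test compound, 48 hours, 5 concentrations. Analysis: linear interpolation between bracketing concentrations; unreached endpoints set to highest concentration. GI50 = concentration required for 50% inhibition of growth.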 Activity calls are given as the source filed them. Cut-off read from the data, not from the text of the source: active = GI50 up to about 1.1 µM and inactive = higher.

Experiments:
Assay in all cases: NCI tumour cell line growth inhibition, 48 h
[1] = test system: 786-0
[2] = test system: A498
[3] = test system: A549
[4] = test system: ACHN
[5] = test system: CAKI-1
[6] = test system: CCRF-CEM
[7] = test system: COLO 205
[8] = test system: DLD-1
[9] = test system: DMS-273
[10] = test system: EKVX
[11] = test system: HCC 2998
[12] = test system: HCT-116
[13] = test system: HCT-15
[14] = test system: HOP-18
[15] = test system: HOP-62
[16] = test system: HOP-92
[17] = test system: HT-29
[18] = test system: IGROV-1
[19] = test system: K562
[20] = test system: KM-20L2
[21] = test system: KM12
[22] = test system: LOX IMVI
[23] = test system: M14
[24] = test system: M19-MEL
[25] = test system: Malme-3M
[26] = test system: NCI-H226
[27] = test system: NCI-H23
[28] = test system: NCI-H460
[29] = test system: OVCAR-3
[30] = test system: OVCAR-4
[31] = test system: OVCAR-5
[32] = test system: OVCAR-8
[33] = test system: RPMI-8226
[34] = test system: RXF 631
[35] = test system: SF-268
[36] = test system: SF-295
[37] = test system: SF-539
[38] = test system: SK-MEL-28
[39] = test system: SK-MEL-2
[40] = test system: SK-MEL-5
[41] = test system: SK-OV-3
[42] = test system: SN12C
[43] = test system: SNB-19
[44] = test system: SNB-75
[45] = test system: SNB-78
[46] = test system: SW-620
[47] = test system: TK-10
[48] = test system: U-251
[49] = test system: UACC-257
[50] = test system: UACC-62
[51] = test system: UO-31
[52] = test system: BT-549
[53] = test system: DMS-114
[54] = test system: DU-145
[55] = test system: HL-60
[56] = test system: Hs-578T
[57] = test system: LXFL 529
[58] = test system: MCF7
[59] = test system: MDA-MB-435
[60] = test system: MOLT-4
[61] = test system: NCI-H522
[62] = test system: SR
[63] = test system: T47D
[64] = test system: XF498

## O=c1c2cc(Br)ccc2[nH]c(=S)n1-c1ccccc1
[1]
  GI50: > 100 µM (inactive)
[2]
  GI50: > 100 µM (inactive)
[3]
  GI50: > 100 µM (inactive)
[4]
  GI50: > 100 µM (inactive)
[5]
  GI50: > 100 µM (inactive)
[6]
  GI50: > 100 µM (inactive)
[7]
  GI50: > 100 µM (inactive)
[8]
  GI50: > 100 µM (inactive)
[9]
  GI50: > 100 µM (inactive)
[10]
  GI50: > 100 µM (inactive)
[11]
  GI50: > 100 µM (inactive)
[12]
  GI50: > 100 µM (inactive)
[13]
  GI50: > 100 µM
[14]
  GI50: > 100 µM (inactive)
[15]
  GI50: > 100 µM (inactive)
[16]
  GI50: > 100 µM (inactive)
[17]
  GI50: > 100 µM (inactive)
[18]
  GI50: > 100 µM (inactive)
[19]
  GI50: > 100 µM (inactive)
[20]
  GI50: > 100 µM (inactive)
[21]
  GI50: > 100 µM (inactive)
[22]
  GI50: > 100 µM (inactive)
[23]
  GI50: > 100 µM (inactive)
[24]
  GI50: > 100 µM (inactive)
[25]
  GI50: > 100 µM (inactive)
[26]
  GI50: > 100 µM (inactive)
[27]
  GI50: > 100 µM (inactive)
[28]
  GI50: > 100 µM (inactive)
[29]
  GI50: > 100 µM (inactive)
[30]
  GI50: > 100 µM (inactive)
[31]
  GI50: > 100 µM (inactive)
[32]
  GI50: > 100 µM (inactive)
[33]
  GI50: > 100 µM (inactive)
[34]
  GI50: > 100 µM (inactive)
[35]
  GI50: > 100 µM (inactive)
[36]
  GI50: > 100 µM (inactive)
[37]
  GI50: > 100 µM (inactive)
[38]
  GI50: > 100 µM (inactive)
[39]
  GI50: > 100 µM (inactive)
[40]
  GI50: > 100 µM (inactive)
[41]
  GI50: > 100 µM (inactive)
[42]
  GI50: > 100 µM (inactive)
[43]
  GI50: > 100 µM (inactive)
[44]
  GI50: > 100 µM (inactive)
[45]
  GI50: > 100 µM (inactive)
[46]
  GI50: > 100 µM (inactive)
[47]
  GI50: > 100 µM (inactive)
[48]
  GI50: > 100 µM (inactive)
[49]
  GI50: > 100 µM (inactive)
[50]
  GI50: > 100 µM (inactive)
[51]
  GI50: > 100 µM (inactive)

## O=C(O)COc1ccc(C(=O)/C(SS/C(C(=O)c2ccc(OCC(=O)O)c(Cl)c2Cl)=C2\C=C(c3ccc(F)cc3)SS2)=C2/C=C(c3ccc(F)cc3)SS2)c(Cl)c1Cl
[1]
  GI50: 27.9 µM (inactive)
[2]
  GI50: 31.7 µM (inactive)
[3]
  GI50: 40.4 µM (inactive)
[4]
  GI50: 18.6 µM (inactive)
[52]
  GI50: 27.7 µM (inactive)
[5]
  GI50: 33.5 µM (inactive)
[6]
  GI50: 4.95 µM (inactive)
[7]
  GI50: 6.76 µM (inactive)
[8]
  GI50: 11.2 µM (inactive)
[53]
  GI50: 3.28 µM (inactive)
[9]
  GI50: 13.6 µM (inactive)
[54]
  GI50: 26.6 µM (inactive)
[10]
  GI50: 38.6 µM (inactive)
[11]
  GI50: 25.6 µM (inactive)
[12]
  GI50: 9.29 µM (inactive)
[13]
  GI50: 9.71 µM
[55]
  GI50: 2.37 µM (inactive)
[14]
  GI50: 14.7 µM (inactive)
[15]
  GI50: 33.9 µM (inactive)
[16]
  GI50: 3.75 µM (inactive)
[17]
  GI50: 26.9 µM (inactive)
[56]
  GI50: 3.83 µM (inactive)
[18]
  GI50: 10.8 µM (inactive)
[19]
  GI50: 4.22 µM (inactive)
[20]
  GI50: 30 µM (inactive)
[21]
  GI50: 15.1 µM (inactive)
[22]
  GI50: 3.12 µM (inactive)
[57]
  GI50: 3.29 µM (inactive)
[23]
  GI50: 23.6 µM (inactive)
[24]
  GI50: 13.2 µM (inactive)
[58]
  GI50: 36.8 µM (inactive)
[59]
  GI50: 49.4 µM (inactive)
[60]
  GI50: 8.67 µM (inactive)
[25]
  GI50: 40.8 µM (inactive)
[26]
  GI50: 15.1 µM (inactive)
[27]
  GI50: 13.2 µM (inactive)
[28]
  GI50: 21.7 µM (inactive)
[61]
  GI50: 2.38 µM (inactive)
[29]
  GI50: 9.46 µM (inactive)
[30]
  GI50: 13.4 µM (inactive)
[31]
  GI50: 32.8 µM (inactive)
[32]
  GI50: 14 µM (inactive)
[33]
  GI50: 10.1 µM (inactive)
[35]
  GI50: 6.9 µM (inactive)
[36]
  GI50: 20.8 µM (inactive)
[37]
  GI50: 9.02 µM (inactive)
[38]
  GI50: 19.2 µM (inactive)
[39]
  GI50: 15.6 µM (inactive)
[40]
  GI50: 17.5 µM (inactive)
[41]
  GI50: 41.7 µM (inactive)
[42]
  GI50: 14.7 µM (inactive)
[43]
  GI50: 15 µM (inactive)
[44]
  GI50: 17.2 µM (inactive)
[45]
  GI50: 6.08 µM (inactive)
[62]
  GI50: 3.76 µM (inactive)
[46]
  GI50: 15.6 µM (inactive)
[63]
  GI50: 3.13 µM (inactive)
[47]
  GI50: 37.8 µM (inactive)
[48]
  GI50: 5.75 µM (inactive)
[49]
  GI50: 27.5 µM (inactive)
[50]
  GI50: 8.24 µM (inactive)
[51]
  GI50: 15.7 µM (inactive)
[64]
  GI50: 5.22 µM (inactive)
